Measurements published in article PMC12454493, “Insight on novel sulfamoylphenyl pyrazole derivatives as anticancer carbonic anhydrase inhibitors” (Molecular Diversity, 2024).
Values joined by “and” are separate entries in the source; they are usually repeats but may differ in a detail not shown here. Equal values may be shown once.

Columns and labels:
UACC-62 = assay: NCI-60 one-dose SRB screen (Melanoma); type: cell-based; settings: Homo sapiens, single dose 10 µM, 48 h, read-out: Growth inhibition percent (GI %)
hCA IX = hCA IX (Homo sapiens, UniProt Q16790); assay: CA inhibitory activity, spectrophotometric p-NPA assay; type: biochemical; settings: for IC50: p-NPA substrate, pH 7.5, 25 °C, triplicate, read-out: IC50 (µM) ± SD hCA IX
Experimental: The software used to calculate CA IC50 along with statistical analysis of the results is GraphPad Prism 9.00. Results were estimated by using one-way ANOVA and the Bonferroni’s multiple comparisons posthoc test was performed (P < 0.05) [46]
Carbonic anhydrase inhibitory activity:
The spectrophotometric assay was conducted in HEPES-Tris buffer, NaCl of pH 7.5 (20mM) at 25◦C. Each inhibitory well-consisted of 50 μL of assay buffer solution, 20 μL of hCA enzyme solution (20 ng/μL in Assay Buffer), and 50 μL of test compound in HPLC grade DMSO (maintain 10% of the final concentration). The mixture solution was
Substrate p-nitrophenyl acetate (p-NPA) (0.7mM) was prepared in HPLC grade methanol and the reaction was started by adding 20 μL to a well in a 96-well-plate. The amount of product formed was measured for 30 min continuously at 1 min intervals at 400 nm in a 96-well-plate using xMARK microplate spectrophotometer, Bio-Rad (USA). The activity of the controlled compound was taken as 100%. All experiments were carried out in triplicates of each used concentration, and results are represented as a

MOLT-4 = assay: NCI-60 one-dose SRB screen (Leukemia); type: cell-based; settings: Homo sapiens, single dose 10 µM, 48 h, read-out: Growth inhibition percent (GI %)
K-562 = assay: NCI-60 one-dose SRB screen (Leukemia); type: cell-based; settings: Homo sapiens, K562, single dose 10 µM, 48 h, read-out: Growth inhibition percent (GI %)
HL-60(TB) = assay: NCI-60 one-dose SRB screen (Leukemia); type: cell-based; settings: Homo sapiens, single dose 10 µM, 48 h, read-out: Growth inhibition percent (GI %)
SR = assay: NCI-60 one-dose SRB screen (Leukemia); type: cell-based; settings: Homo sapiens, single dose 10 µM, 48 h, read-out: Growth inhibition percent (GI %)
CCRF-CEM = assay: NCI-60 one-dose SRB screen (Leukemia); type: cell-based; settings: Homo sapiens, single dose 10 µM, 48 h, read-out: Growth inhibition percent (GI %)
RPMI-8226 = assay: NCI-60 one-dose SRB screen (Leukemia); type: cell-based; settings: Homo sapiens, single dose 10 µM, 48 h, read-out: Growth inhibition percent (GI %)
BT-549 = assay: NCI-60 one-dose SRB screen (Breast Cancer); type: cell-based; settings: Homo sapiens, single dose 10 µM, 48 h, read-out: Growth inhibition percent (GI %)
HS 578T = assay: NCI-60 one-dose SRB screen (Breast Cancer); type: cell-based; settings: Homo sapiens, single dose 10 µM, 48 h, read-out: Growth inhibition percent (GI %)
T-47D = assay: NCI-60 one-dose SRB screen (Breast Cancer); type: cell-based; settings: Homo sapiens, T47D, single dose 10 µM, 48 h, read-out: Growth inhibition percent (GI %)
MDA-MB-468 = assay: NCI-60 one-dose SRB screen (Breast Cancer); type: cell-based; settings: Homo sapiens, single dose 10 µM, 48 h, read-out: Growth inhibition percent (GI %)
MDA-MB-231/ATCC = assay: NCI-60 one-dose SRB screen (Breast Cancer); type: cell-based; settings: Homo sapiens, single dose 10 µM, 48 h, read-out: Growth inhibition percent (GI %)
MCF-7 = assay: NCI-60 one-dose SRB screen (Breast Cancer); type: cell-based; settings: Homo sapiens, MCF7, single dose 10 µM, 48 h, read-out: Growth inhibition percent (GI %)

## CCOC(=O)c1ccc(NC(=O)COC(=O)c2cn(-c3ccc(S(N)(=O)=O)cc3)nc2-c2ccc(OC)cc2)cc1 [Compound 5c, 2-[(4-(Ethoxycarbonyl)phenyl)amino]-2-oxoethyl 3-(4-methoxyphenyl)-1-(4-sulfamoylphenyl)-1H-pyrazole-4-carboxylate]
UACC-62
  inhibition at 10 µM: 44.5%
hCA IX
  IC50: 0.22 ± 0.01 µM
other
  melting point: 121 to 124 °C
MOLT-4
  inhibition at 10 µM: 65.9%
K-562
  inhibition at 10 µM: 61.7%
HL-60(TB)
  inhibition at 10 µM: 48.4%
SR
  inhibition at 10 µM: 64.6%
CCRF-CEM
  inhibition at 10 µM: 62.6%
RPMI-8226
  inhibition at 10 µM: 58.6%
BT-549
  inhibition at 10 µM: 21.5%
HS 578T
  inhibition at 10 µM: 31.3%
T-47D
  inhibition at 10 µM: 46.2%
MDA-MB-468
  inhibition at 10 µM: 40%
MDA-MB-231/ATCC
  inhibition at 10 µM: 18.8%
MCF-7
  inhibition at 10 µM: 48.8%

## Cc1ccc(-c2nn(-c3ccc(S(N)(=O)=O)cc3)cc2C(=O)OCC(=O)Nc2nnc(S(N)(=O)=O)s2)cc1 [Compound 6b, 2-Oxo-2-[(5-sulfamoyl-1,3,4-thiadiazol-2-yl)amino] ethyl 1-(4-sulfamoylphenyl)-3-(p-tolyl)-1H-pyrazole-4-carboxylate]
UACC-62
  inhibition at 10 µM: 14.4%
hCA IX
  IC50: 0.339 ± 0.016 µM
other
  melting point: 115 to 120 °C
MOLT-4
  inhibition at 10 µM: 7.13%
K-562
  inhibition at 10 µM: 16.7%
HL-60(TB)
  inhibition at 10 µM: < 5%
SR
  inhibition at 10 µM: 15.7%
CCRF-CEM
  inhibition at 10 µM: 6.03%
RPMI-8226
  inhibition at 10 µM: < 5%
BT-549
  inhibition at 10 µM: < 5%
HS 578T
  inhibition at 10 µM: < 5%
T-47D
  inhibition at 10 µM: < 5%
MDA-MB-468
  inhibition at 10 µM: < 5%
MDA-MB-231/ATCC
  inhibition at 10 µM: 8.63%
MCF-7
  inhibition at 10 µM: < 5%

## COc1ccc(-c2nn(-c3ccc(S(N)(=O)=O)cc3)cc2C(=O)OCC(=O)Nc2nnc(S(N)(=O)=O)s2)cc1 [Compound 6c, 2-Oxo-2-[(5-sulfamoyl-1,3,4-thiadiazol-2-yl)amino] ethyl 3-(4-methoxyphenyl)-1-(4-sulfamoylphenyl)-1H-pyrazole-4-carboxylate]
UACC-62
  inhibition at 10 µM: 9.09%
hCA IX
  Ki: 73 nM
  IC50: 0.07 µM and 0.073 µM
other
  melting point: 240 to 241 °C
MOLT-4
  inhibition at 10 µM: < 5%
K-562
  inhibition at 10 µM: < 5%
HL-60(TB)
  inhibition at 10 µM: < 5%
SR
  inhibition at 10 µM: < 5%
CCRF-CEM
  inhibition at 10 µM: < 5%
RPMI-8226
  inhibition at 10 µM: < 5%
BT-549
  inhibition at 10 µM: < 5%
HS 578T
  inhibition at 10 µM: 12.8%
T-47D
  inhibition at 10 µM: < 5%
MDA-MB-468
  inhibition at 10 µM: 7.76%
MDA-MB-231/ATCC
  inhibition at 10 µM: < 5%
MCF-7
  inhibition at 10 µM: 15.8%

## Cc1ccc(-c2nn(-c3ccc(S(N)(=O)=O)cc3)cc2-c2nnc(N)s2)cc1 [Compound 10, 4-[4-(5-Amino-1,3,4-thiadiazol-2-yl)-3-(p-tolyl)-1H-pyrazol-1-yl] benzenesulfonamide]
UACC-62
  inhibition at 10 µM: < 5%
hCA IX
  IC50: 0.66 µM and 0.663 µM
other
  melting point: 230 to 234 °C
MOLT-4
  inhibition at 10 µM: < 5%
K-562
  inhibition at 10 µM: 11.1%
HL-60(TB)
  inhibition at 10 µM: 9.66%
SR
  inhibition at 10 µM: < 5%
CCRF-CEM
  inhibition at 10 µM: 10.2%
RPMI-8226
  inhibition at 10 µM: 10.2%
BT-549
  inhibition at 10 µM: 11.2%
HS 578T
  inhibition at 10 µM: 5.02%
T-47D
  inhibition at 10 µM: 13.2%
MDA-MB-468
  inhibition at 10 µM: 5.43%
MDA-MB-231/ATCC
  inhibition at 10 µM: < 5%
MCF-7
  inhibition at 10 µM: 15.8%

## CS(=O)(=O)c1ccc(-c2nn(-c3ccc(S(N)(=O)=O)cc3)cc2C(=O)OCC(=O)Nc2ccc(S(N)(=O)=O)cc2)cc1 [Compound 4e, 2-Oxo-2-[(4-sulfamoylphenyl)amino] ethyl 3-(4-(methylsulfonyl)phenyl)-1-(4-sulfamoylphenyl)-1H-pyrazole-4-carboxylate]
UACC-62
  inhibition at 10 µM: < 5%
hCA IX
  Ki: 72 nM
  IC50: 0.07 µM and 0.072 µM
other
  melting point: 132 to 135 °C
MOLT-4
  inhibition at 10 µM: < 5%
K-562
  inhibition at 10 µM: < 5%
HL-60(TB)
  inhibition at 10 µM: < 5%
SR
  inhibition at 10 µM: < 5%
CCRF-CEM
  inhibition at 10 µM: < 5%
RPMI-8226
  inhibition at 10 µM: < 5%
BT-549
  inhibition at 10 µM: < 5%
HS 578T
  inhibition at 10 µM: < 5%
T-47D
  inhibition at 10 µM: < 5%
MDA-MB-468
  inhibition at 10 µM: < 5%
MDA-MB-231/ATCC
  inhibition at 10 µM: < 5%
MCF-7
  inhibition at 10 µM: < 5%

## NC(=S)NNC(=O)c1cn(-c2ccc(S(N)(=O)=O)cc2)nc1-c1ccccc1 [Compound 9a, 2-[3-Phenyl-1-(4-sulfamoylphenyl)-1H-pyrazole-4-carbonyl] hydrazine-1-carbothioamide]
UACC-62
  inhibition at 10 µM: 8.26%
hCA IX
  IC50: 0.21 µM and 0.215 µM
other
  melting point: 180 to 181 °C
MOLT-4
  inhibition at 10 µM: < 5%
K-562
  inhibition at 10 µM: < 5%
HL-60(TB)
  inhibition at 10 µM: < 5%
SR
  inhibition at 10 µM: < 5%
CCRF-CEM
  inhibition at 10 µM: < 5%
RPMI-8226
  inhibition at 10 µM: < 5%
BT-549
  inhibition at 10 µM: < 5%
HS 578T
  inhibition at 10 µM: < 5%
T-47D
  inhibition at 10 µM: < 5%
MDA-MB-468
  inhibition at 10 µM: < 5%
MDA-MB-231/ATCC
  inhibition at 10 µM: < 5%
MCF-7
  inhibition at 10 µM: < 5%

## Cc1ccc(-c2nn(-c3ccc(S(N)(=O)=O)cc3)cc2-c2n[nH]c(=S)[nH]2)cc1 [Compound 11, 4-[4-(5-Mercapto-1H-1,2,4-triazol-3-yl)-3-(p-tolyl)-1H-pyrazol-1-yl] benzenesulfonamide]
UACC-62
  inhibition at 10 µM: 12.9%
hCA IX
  IC50: 0.24 ± 0.011 µM
other
  melting point: 255 to 257 °C
MOLT-4
  inhibition at 10 µM: 21.1%
K-562
  inhibition at 10 µM: < 5%
HL-60(TB)
  inhibition at 10 µM: < 5%
SR
  inhibition at 10 µM: 15.8%
CCRF-CEM
  inhibition at 10 µM: < 5%
RPMI-8226
  inhibition at 10 µM: < 5%
BT-549
  inhibition at 10 µM: < 5%
HS 578T
  inhibition at 10 µM: < 5%
T-47D
  inhibition at 10 µM: 21.2%
MDA-MB-468
  inhibition at 10 µM: < 5%
MDA-MB-231/ATCC
  inhibition at 10 µM: < 5%
MCF-7
  inhibition at 10 µM: 6.49%

## NS(=O)(=O)c1ccc(-n2cc(C(=O)OCC(=O)Nc3nnc(S(N)(=O)=O)s3)c(-c3ccccc3)n2)cc1 [Compound 6a, 2-Oxo-2-[(5-sulfamoyl-1,3,4-thiadiazol-2-yl)amino] ethyl 3-phenyl-1-(4-sulfamoylphenyl)-1H-pyrazole-4-carboxylate]
UACC-62
  inhibition at 10 µM: 17.7%
hCA IX
  IC50: 0.591 ± 0.028 µM
other
  melting point: 135 to 137 °C
MOLT-4
  inhibition at 10 µM: < 5%
K-562
  inhibition at 10 µM: < 5%
HL-60(TB)
  inhibition at 10 µM: < 5%
SR
  inhibition at 10 µM: 17%
CCRF-CEM
  inhibition at 10 µM: < 5%
RPMI-8226
  inhibition at 10 µM: < 5%
BT-549
  inhibition at 10 µM: < 5%
HS 578T
  inhibition at 10 µM: 5.52%
T-47D
  inhibition at 10 µM: < 5%
MDA-MB-468
  inhibition at 10 µM: < 5%
MDA-MB-231/ATCC
  inhibition at 10 µM: 9.95%
MCF-7
  inhibition at 10 µM: 22.6%

## CCOC(=O)c1ccc(NC(=O)COC(=O)c2cn(-c3ccc(S(N)(=O)=O)cc3)nc2-c2ccc(S(C)(=O)=O)cc2)cc1 [Compound 5e, 2-[(4-(Ethoxycarbonyl)phenyl)amino]-2-oxoethyl 3-(4-(methylsulfonyl)phenyl)-1-(4-sulfamoylphenyl)-1H-pyrazole-4-carboxylate]
UACC-62
  inhibition at 10 µM: 15.8%
hCA IX
  Ki: 40 nM
  IC50: 0.04 ± 0.002 µM
other
  melting point: 127 to 130 °C
MOLT-4
  inhibition at 10 µM: < 5%
K-562
  inhibition at 10 µM: 9.58%
HL-60(TB)
  inhibition at 10 µM: 6.26%
SR
  inhibition at 10 µM: 22.1%
CCRF-CEM
  inhibition at 10 µM: 9.47%
RPMI-8226
  inhibition at 10 µM: 6.03%
BT-549
  inhibition at 10 µM: 18.9%
HS 578T
  inhibition at 10 µM: 23.7%
T-47D
  inhibition at 10 µM: 19.1%
MDA-MB-468
  inhibition at 10 µM: 20.3%
MDA-MB-231/ATCC
  inhibition at 10 µM: < 5%
MCF-7
  inhibition at 10 µM: 6.56%
